Source: patent publication US6916844B2, “Hydroxy pyranone derivative and preparation method thereof” (Amorepacific Corporation, priority 2002, dated 2005)

Columns and labels:
[1] = system: healthy females and males; assay: Human patch test; format: in vivo; conditions: 1% in patch base; for Average Response (n = 30): calculated by equation 4, below 1 = no irritation; for Number of the subjected showing response, 24 hours later, − (No visible response) / Number of the subjected showing response, 24 hours later, ± (Mild erythema) / Number of the subjected showing response, 24 hours later, + (Intense erythema) / Number of the subjected showing response, 24 hours later, + + (Intense erythema with edema) / Number of the subjected showing response, 24 hours later, + + + (Intense erythema with edema and vesicle): n = 30, 24 hours later; for Number of the subjected showing response, 24 hours later, − (No visible response) / Number of the subjected showing response, 48 hours later, − (No visible response): grade 0; for Number of the subjected showing response, 24 hours later, ± (Mild erythema) / Number of the subjected showing response, 48 hours later, ± (Mild erythema): grade 1; for Number of the subjected showing response, 24 hours later, + (Intense erythema) / Number of the subjected showing response, 48 hours later, + (Intense erythema): grade 2; for Number of the subjected showing response, 24 hours later, + + (Intense erythema with edema) / Number of the subjected showing response, 48 hours later, + + (Intense erythema with edema): grade 3; for Number of the subjected showing response, 24 hours later, + + + (Intense erythema with edema and vesicle) / Number of the subjected showing response, 48 hours later, + + + (Intense erythema with edema and vesicle): grade 4; for Number of the subjected showing response, 48 hours later, − (No visible response) / Number of the subjected showing response, 48 hours later, ± (Mild erythema) / Number of the subjected showing response, 48 hours later, + (Intense erythema) / Number of the subjected showing response, 48 hours later, + + (Intense erythema with edema) / Number of the subjected showing response, 48 hours later, + + + (Intense erythema with edema and vesicle): n = 30, 48 hours later
Experimental: This test was performed for thirty (30) healthy females and males aged on average 24.8 years and having no experience of hypersensitivity, according to method of CTFA Guideline (The Cosmetic, Toiletry and Fragrance Association. Inc. Washington, D.C., 20023, 1991). Each compound of Examples 1˜6 was dissolved in patch base having the composition of Table 6 to be 1% concentration as for test materials, and 20 μl of each test materials was dropped into a Finn chamber respectively, then attached to the forearm of the subject and fixed with a micropore tape. After 24 hours of patching, the patches were removed and the test sites were marked with marking pen. The observations of the test sites were made after 24 and 48 hours from the patching.
The average response of Table 8 was calculated by the following equation 4. [formula]

[2] = system: white guinea pigs; assay: Phototoxicity test; format: in vivo; conditions: 1% (w/v) solution, UVA 15 J/cm^2, observed at 24, 48 and 72 hours; for Phototoxic index: below 0.5 = no phototoxicity
Experimental: This test was performed for ten (10) white guinea pigs whose hairs on both sides of the backs were cut, and fixed. On the back of the guinea pig, six (6) test sites measuring 2.5 cm×2.5 cm, three (3) per each side, were sectioned. Right sites were prepared as controls with no irradiation (UV non-irradiation sites) and left sites were irradiated (UV irradiation sites). Vehicle (1,3-butylene glycol:ethanol=7:3) was used as a negative control, and 0.1% concentration of 8-MOP (methoxypsoralene) was used as a positive control; and 1% (w/v) solutions of the compounds of Examples 1˜6 were applied to either site with an amount of […] for each site. 30 minutes later, right sites were shielded with aluminum foil and UVA(320˜380 nm) was irradiated at a distance of about 10 cm therefrom with Waldmann to the final energy of 15 J/cm^2. After 24, 48 and 72 hours elapsed, skin response of guinea pig was observed. Erythema and edema were scored from 0 to 4 points as shown in the Table 3, and skin response was evaluated by summing the scores. Maximum scores were selected when measured on each elapsed time, i.e. 24, 48 and 72 hours, and irritation index was calculated according to the following equation 2. Then, phototoxic index was calculated according to the following equation 3.
[Equation 2] Irritation index=(Maximum of erythema+Maximum of edema)/Number of animals [Equation 3] Phototoxic index=(Irritation index of UV irradiation site)−(Irritation index of UV non-irradiation site)

[3] = system: Human fibroblasts; assay: Collagenase-inhibiting effect (collagenase expression, ELISA kit); format: cell-based; conditions: 10^-4 M, 24 hours, relative to untreated control group = 100
Experimental: The collagenase-inhibiting effect of hydroxy pyranone derivatives obtained in Examples 1˜6 was compared with those of retinol and retinoic acid.
Human fibroblasts were cultured in Dulbecco's Modified Eagle's Medium (DMEM) supplemented with 2.5% fetal bovine serum. The fibroblasts were seeded into a 96-well microtiter plate to a density of 5,000 cells/well, and then cultured to 70˜80% of growth. The plate was treated with test samples at a concentration of 10^−4M for 24 hours, then the cultured medium and the cells were raked up and recovered. From the recovered culture, collagenase production was measured with collagenase kit (Catalog #: RPN 2610) commercialized by Amersham Pharmacia Biotech. First, the recovered culture was added into a 96-well plate wherein primary collagenase antibodies were uniformly spread, and then antigen-antibody reaction was performed in an incubator for 3 hours. Later, secondary collagenase antibodies bonded with chromophore were added to the 96-well plate and reacted for 15 minutes. Then, color former was added thereto in order to induce development at the room temperature for 15 minutes, and 1M of sulfuric acid was added to stop the reaction. The reaction solution became yellow, and the color density depends on the progress of the reaction. The absorbance of the yellow 96-well plate was measured at 405 nm with absorptiometer. The expression of collagenase was calculated by the following equation 1. No sample was treated in the control group.
[Equation 1] The expression of collagenase (%)=[(Absorbance of test group)/(Absorbance of control group)]×100
The expression of collagenase was evaluated as a relative value compared with that of the control group of which the expression of collagenase was set to be 100.

[4] = system: rabbits; assay: Primary skin irritation test on animals (Draize P.I.I.); format: in vivo; conditions: 1% in 1,3-butylene glycol:ethanol=7:3, 0.5 ml, observed 24 and 72 hours later
Experimental: This test was performed for six (6) healthy male rabbits whose hairs on both sides of the backs were cut. The compounds of Examples 1˜6 were dissolved in 1,3-butylene glycol:ethanol=7:3, to obtain 1% concentration of test samples. 0.5 ml of each test samples were applied to right side area of 2.5 cm×2.5 cm. No sample was treated on left side as a control. 24 hours and 72 hours later, skin abnormality such as erythema, crust and edema was observed. Based on the score of skin response, skin irritation was estimated according to Draize's P.I.I. (Primary Irritation Index) and compared with that of retinoic acid.

[5] = system: Human fibroblasts; assay: Effect on biosynthesis of collagen (procollagen type (I) ELISA); format: cell-based; conditions: 10^-4 M, 24 hours, relative to untreated control group = 100
Experimental: The effect of the hydroxy pyranone derivatives obtained in Examples 1˜6 on biosynthesis of collagen was compared with those of retinol and retinoic acid.
Human fibroblasts were seeded into a 24-well plate to a density of 10^5 cells/well and then cultured to 90% of growth. The plate was washed with PBS (phosphate buffered saline) and treated with test samples at a concentration of 10^−4M, and then incubated in a CO2 incubator for 24 hours. From its supernatant, procollagen production was measured with procollagen type (I) ELISA kit. The biosynthesis of collagen was evaluated as a relative value compared with that of the control group, which is not treated with sample and of which the value of biosyntheis of collagen was set to be 100.

Number of the subjected showing response, 24 hours later, − (No visible response) [1]	Number of the subjected showing response, 24 hours later, ± (Mild erythema) [1]	Number of the subjected showing response, 24 hours later, + (Intense erythema) [1]	Number of the subjected showing response, 24 hours later, + + (Intense erythema with edema) [1]	Number of the subjected showing response, 24 hours later, + + + (Intense erythema with edema and vesicle) [1]	Number of the subjected showing response, 48 hours later, − (No visible response) [1]	Number of the subjected showing response, 48 hours later, ± (Mild erythema) [1]	Number of the subjected showing response, 48 hours later, + (Intense erythema) [1]	Number of the subjected showing response, 48 hours later, + + (Intense erythema with edema) [1]	Number of the subjected showing response, 48 hours later, + + + (Intense erythema with edema and vesicle) [1]	Expression of collagenase (%) [3]	Compound	Average Response (n = 30) [1]	Evaluation (phototoxicity) [2]	Phototoxic index [2]	Evaluation (skin irritation) [4]	P. I. I. (Primary Irritation Index) [4]	Biosynthesis of collagen (%) [5]
28	2	0	0	0	30	0	0	0	0	83%	O=C(OCc1cc(=O)c(O)co1)c1ccc2c(c1)OCO2 [Compound of Ex. 1, (5-hydroxy-4-oxo-4H-pyran-2-yl)methyl 2H-benzo [3,4-d] 1,3-dioxolan-5-carboxylate]	0.83	No phototoxicity	0	No irritation	0.375	118%
30	0	0	0	0	29	1	0	0	0	81%	O=C(Oc1cc(=O)c(O)co1)c1ccc2c(c1)OCCO2 [Compound of Ex. 2, (5-hydroxy-4-oxo-4H-pyran-2-yl) 2H,3H-benzo [3,4-e] 1,4-dioxane-6-carboxylate]	0.42	No phototoxicity	0	No irritation	0.345	121%

More lines, now with the values behind:

Compound	Number of the subjected showing response, 24 hours later, − (No visible response) [1]	Number of the subjected showing response, 24 hours later, ± (Mild erythema) [1]	Number of the subjected showing response, 24 hours later, + (Intense erythema) [1]	Number of the subjected showing response, 24 hours later, + + (Intense erythema with edema) [1]	Number of the subjected showing response, 24 hours later, + + + (Intense erythema with edema and vesicle) [1]	Number of the subjected showing response, 48 hours later, − (No visible response) [1]	Number of the subjected showing response, 48 hours later, ± (Mild erythema) [1]	Number of the subjected showing response, 48 hours later, + (Intense erythema) [1]	Number of the subjected showing response, 48 hours later, + + (Intense erythema with edema) [1]	Number of the subjected showing response, 48 hours later, + + + (Intense erythema with edema and vesicle) [1]	Expression of collagenase (%) [3]	Average Response (n = 30) [1]	Evaluation (phototoxicity) [2]	Phototoxic index [2]	Evaluation (skin irritation) [4]	P. I. I. (Primary Irritation Index) [4]	Biosynthesis of collagen (%) [5]
O=C(/C=C/c1ccc2c(c1)OCCO2)COc1cc(=O)c(O)co1 [Compound of Ex. 4, 2-((3E)-4-(2H,3H-benzo [3,4-e] 1,4-dioxan-6-yl)-2-oxobut-3-enyloxy)-5hydroxy-4-pyran-4-one]	29	1	0	0	0	30	0	0	0	0	77%	0.42	No phototoxicity	0	No irritation	0.350	122%
O=c1cc(/C=C/c2ccc3c(c2)OCO3)occ1O [Compound of Ex. 5, 2-((1E)-2-(2H,3H-benzo [3,4-d] 1,3-dioxolan-5-yl)vinyl)-5-hydroxy-4H-pyran-4-one]	30	0	0	0	0	30	0	0	0	0	88%	0.00	No phototoxicity	0	No irritation	0.375	116%
CC1=C(/C=C/C(C)=C/C=C/C(C)=C/C(=O)O)C(C)(C)CCC1 [Retinoic acid, reference compound]											75%				Light irritation	1.830	125%
CC1=C(/C=C/C(C)=C/C=C/C(C)=C/CO)C(C)(C)CCC1 [Retinol, reference compound]											82%						120%
